# Reference: PubChem BioAssay AID292 (DTP/NCI, 2004)
# Where “and” joins values, the source holds several entries; their conditions need not be identical. Equal entries are not always repeated. Inconclusive results and toxic doses are left out.
# Test system: B6C3F1 mice, ip Sarcoma M5076, median survival T/C
# Experiment: NCI In Vivo Anticancer Drug Screen. Data for tumor model Sarcoma M5076 (intraperitoneal) in B6C3F1 mice
# Conditions: endpoint: median survival time, higher = longer survival
# Method in brief: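 Tumour cells were transplanted into mice, compound or vehicle was given, survival of both groups was followed, and the treated figure was expressed over the control figure.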
# [1] = dose: 25.0 mg/kg/injection, schedule: Q04DX004 (ip), vehicle: saline with Tween-80
# [2] = dose: 50.0 mg/kg/injection, schedule: Q04DX004 (ip), vehicle: saline with Tween-80
# [3] = dose: 100.0 mg/kg/injection, schedule: Q04DX004 (ip), vehicle: saline with Tween-80
# [4] = dose: 200.0 mg/kg/injection, schedule: Q04DX004 (ip), vehicle: saline with Tween-80
# [5] = dose: 400.0 mg/kg/injection, schedule: Q04DX004 (ip), vehicle: saline with Tween-80
# [6] = dose: 12.5 mg/kg/injection, schedule: Q04DX004 (ip), vehicle: saline
# [7] = dose: 18.0 mg/kg/injection, schedule: Q04DX004 (ip), vehicle: saline
# [8] = dose: 25.0 mg/kg/injection, schedule: Q04DX004 (ip), vehicle: saline
# [9] = dose: 30.0 mg/kg/injection, schedule: Q04DX004 (ip), vehicle: saline
# [10] = dose: 50.0 mg/kg/injection, schedule: Q04DX004 (ip), vehicle: saline
# [11] = dose: 50.0 mg/kg/injection, schedule: Q04DX004 (ip), vehicle: Klucel (hydroxypropylcellulose) (HPC)
# [12] = dose: 100.0 mg/kg/injection, schedule: Q04DX004 (ip), vehicle: Klucel (hydroxypropylcellulose) (HPC)
# [13] = dose: 200.0 mg/kg/injection, schedule: Q04DX004 (ip), vehicle: Klucel (hydroxypropylcellulose) (HPC)
smiles,measurement,setting,value
N[C@@H](Cc1c[nH]c2ccccc12)C(=O)Nc1nncs1,T/C,"dose: 16.67 mg/kg/injection, schedule: Q03HX012 (ip), vehicle: saline",102 % of control
same,T/C,"dose: 33.34 mg/kg/injection, schedule: Q03HX012 (ip), vehicle: saline",101 % of control
same,T/C,"dose: 66.67 mg/kg/injection, schedule: Q03HX012 (ip), vehicle: saline",109 % of control
same,T/C,"dose: 100.0 mg/kg/injection, schedule: Q04DX004 (ip), vehicle: suspension in saline",95 % of control
same,T/C,"dose: 133.34 mg/kg/injection, schedule: Q03HX012 (ip), vehicle: saline",120 % of control
same,T/C,"dose: 200.0 mg/kg/injection, schedule: Q04DX004 (ip), vehicle: suspension in saline",111 % of control
same,T/C,"dose: 266.67 mg/kg/injection, schedule: Q03HX012 (ip), vehicle: saline",120 % of control
same,T/C,"dose: 400.0 mg/kg/injection, schedule: Q04DX004 (ip), vehicle: suspension in saline",101 % of control
same,T/C,"dose: 800.0 mg/kg/injection, schedule: Q04DX004 (ip), vehicle: suspension in saline",118 % of control
CCOC(=O)CNCc1cc(=O)[nH]c2cc(Cl)ccc12,T/C,[1],99 % of control
same,T/C,[2],99 % of control
same,T/C,[3],101 % of control
same,T/C,[4],99 % of control
same,T/C,[5],94 % of control
Cn1cc(NC(=O)c2cc(NC(=O)c3cc(NC=O)cn3C)cn2C)cc1C(=O)NCCC(=N)N,T/C,"dose: 12.5 mg/kg/injection, schedule: Q04DX004 (ip), vehicle: water",108 % of control
same,T/C,"dose: 25.0 mg/kg/injection, schedule: Q04DX004 (ip), vehicle: water",102 % of control
same,T/C,"dose: 50.0 mg/kg/injection, schedule: Q04DX004 (ip), vehicle: water",105 % of control
same,T/C,"dose: 100.0 mg/kg/injection, schedule: Q04DX004 (ip), vehicle: water",99 % of control
C=C1C(O)C2(O)OCC34C(CC5C(C)=CC(=O)C(O)C5(C)C23)OC(=O)C(OC(=O)C/C=C(\C)CCCCC)C14 (centres undefined),T/C,"dose: 1.0 mg/kg/injection, schedule: Q04DX004 (ip), vehicle: saline + alcohol",105 % of control and 107 % of control
same,T/C,"dose: 2.0 mg/kg/injection, schedule: Q04DX004 (ip), vehicle: saline + alcohol",104 % of control and 122 % of control
same,T/C,"dose: 4.0 mg/kg/injection, schedule: Q04DX004 (ip), vehicle: saline + alcohol",102 % of control and 108 % of control
OCC(O)C(O)C(O)C(O)CO (centres undefined),T/C,"dose: 75.0 mg/kg/injection, schedule: Q04DX004 (ip), vehicle: saline",96 % of control and 102 % of control
same,T/C,"dose: 150.0 mg/kg/injection, schedule: Q04DX004 (ip), vehicle: saline",111 % of control
same,T/C,"dose: 300.0 mg/kg/injection, schedule: Q04DX004 (ip), vehicle: saline",96 % of control and 100 % of control
same,T/C,"dose: 600.0 mg/kg/injection, schedule: Q04DX004 (ip), vehicle: saline",92 % of control and 101 % of control
same,T/C,"dose: 1200.0 mg/kg/injection, schedule: Q04DX004 (ip), vehicle: saline",101 % of control and 106 % of control
O=C[C@@H](CO)O[C@H](C=O)c1c[nH]c(=O)[nH]c1=O,T/C,[6],111 % of control and 121 % of control
same,T/C,[7],110 % of control
same,T/C,[8],114 % of control and 123 % of control
same,T/C,[9],118 % of control
same,T/C,[10],123 % of control
same,T/C,"dose: 100.0 mg/kg/injection, schedule: Q04DX004 (ip), vehicle: saline",165 % of control
same,T/C,"dose: 138.8 mg/kg/injection, schedule: Q04DX004 (ip), vehicle: saline",153 % of control
CCOC(=O)C(C(=O)OCC)=C(N)C(Cl)(Cl)Cl,T/C,"dose: 25.0 mg/kg/injection, schedule: Q04DX004 (ip), vehicle: Klucel (hydroxypropylcellulose) (HPC)",107 % of control
same,T/C,[11],103 % of control
same,T/C,[12],101 % of control
same,T/C,[13],103 % of control
same,T/C,"dose: 400.0 mg/kg/injection, schedule: Q04DX004 (ip), vehicle: Klucel (hydroxypropylcellulose) (HPC)",96 % of control
CS(=O)(=O)CS(=O)(=O)OCCF,T/C,[6],152 % of control
same,T/C,[7],176 % of control
same,T/C,[8],189 % of control and 240 % of control
same,T/C,[9],244 % of control
same,T/C,[10],234 % of control and 262 % of control
NC(=O)c1cc(Cl)nc2nc(Cl)nc(N)c12,T/C,[1],100 % of control
same,T/C,[2],97 % of control
same,T/C,[3],99 % of control
same,T/C,[4],96 % of control
same,T/C,[5],93 % of control
CC(=O)OCCN1CCOC(O)(c2cccc(C(F)(F)F)c2)C1 (centres undefined),T/C,"dose: 11.25 mg/kg/injection, schedule: Q04DX004 (ip), vehicle: saline with Tween-80",97 % of control
same,T/C,"dose: 22.5 mg/kg/injection, schedule: Q04DX004 (ip), vehicle: saline with Tween-80",96 % of control
same,T/C,"dose: 45.0 mg/kg/injection, schedule: Q04DX004 (ip), vehicle: saline with Tween-80",97 % of control
same,T/C,"dose: 90.0 mg/kg/injection, schedule: Q04DX004 (ip), vehicle: saline with Tween-80",100 % of control
same,T/C,"dose: 180.0 mg/kg/injection, schedule: Q04DX004 (ip), vehicle: saline with Tween-80",98 % of control
COc1ccc(NC(=O)C2C(=O)C(=O)N(c3ccc(OC)cc3OC)C2=O)c(OC)c1 (centres undefined),T/C,[11],100 % of control
same,T/C,[12],100 % of control
same,T/C,[13],97 % of control
Nc1nc(Br)nc2c1ncn2C1CC(O)C(CO)O1 (centres undefined),T/C,"dose: 7.5 mg/kg/injection, schedule: Q03HX009 (ip), vehicle: saline",102 % of control
same,T/C,"dose: 15.0 mg/kg/injection, schedule: Q03HX009 (ip), vehicle: saline",118 % of control
same,T/C,"dose: 30.0 mg/kg/injection, schedule: Q03HX009 (ip), vehicle: saline",109 % of control
same,T/C,"dose: 60.0 mg/kg/injection, schedule: Q03HX009 (ip), vehicle: saline",116 % of control
same,T/C,"dose: 120.0 mg/kg/injection, schedule: Q03HX009 (ip), vehicle: saline",113 % of control
COC1C(CO)OC(n2c3c(Cl)cccc3c3c4c(c5c6cccc(Cl)c6[nH]c5c32)C(=O)NC4=O)C(O)C1O (centres undefined),T/C,"dose: 46.75 mg/kg/injection, schedule: Q04DX004 (ip), vehicle: distilled water + Tween-80",113 % of control
same,T/C,"dose: 50.0 mg/kg/injection, schedule: Q04DX004 (ip), vehicle: distilled water + Tween-80",116 % of control
same,T/C,"dose: 93.5 mg/kg/injection, schedule: Q04DX004 (ip), vehicle: distilled water + Tween-80",118 % of control
same,T/C,"dose: 100.0 mg/kg/injection, schedule: Q04DX004 (ip), vehicle: distilled water + Tween-80",117 % of control and 118 % of control
same,T/C,"dose: 200.0 mg/kg/injection, schedule: Q04DX004 (ip), vehicle: distilled water + Tween-80",118 % of control
same,T/C,"dose: 374.0 mg/kg/injection, schedule: Q04DX004 (ip), vehicle: distilled water + Tween-80",108 % of control
same,T/C,"dose: 748.0 mg/kg/injection, schedule: Q04DX004 (ip), vehicle: distilled water + Tween-80",115 % of control
same,T/C,"dose: 800.0 mg/kg/injection, schedule: Q04DX004 (ip), vehicle: distilled water + Tween-80",117 % of control
CC1OC(O[C@H]2/C=C/C=C/C=C/C=C/C=C/C=C/C=C/[C@H](C)[C@@H](O)[C@@H](C)[C@H](C)OC(=O)C[C@H](O)C[C@H](O)CC[C@@H](O)[C@H](O)C[C@H](O)C[C@]3(O)C[C@H](O)[C@@H](C(=O)O)[C@H](C2)O3)C(O)C(N)C1O (some centres undefined),T/C,"dose: 3.12 mg/kg/injection, schedule: Q04DX004 (ip), vehicle: suspension in saline",97 % of control
same,T/C,"dose: 6.25 mg/kg/injection, schedule: Q04DX004 (ip), vehicle: suspension in saline",105 % of control
same,T/C,"dose: 12.5 mg/kg/injection, schedule: Q04DX004 (ip), vehicle: suspension in saline",100 % of control and 101 % of control
same,T/C,"dose: 25.0 mg/kg/injection, schedule: Q04DX004 (ip), vehicle: suspension in saline",100 % of control and 109 % of control
same,T/C,"dose: 50.0 mg/kg/injection, schedule: Q04DX004 (ip), vehicle: suspension in saline",98 % of control and 107 % of control
